# From patent US5939458A, “Reduction of hair growth” (priority 1997, dated 1999)
# Experiments:
# [1] = test system: flank organ hair growth; test: Golden Syrian hamster assay (flank organ hair mass after thirteen topical applications); type: in vivo
# Text: Male intact Golden Syrian hamsters are considered acceptable models for human beard hair growth in that they display oval shaped flank organs, one on each side, each about 8 mm. in major diameter, which grow thick black and coarse hair similar to human beard hair. These organs produce hair in response to androgens in the hamster. To evaluate the effectiveness of a composition including an aminoacyl-tRNA synthetase inhibitor, the flank organs of each of a group of hamsters are shaved. To one organ of each animal 10 μl. of vehicle alone once a day is applied, while to the other organ of each animal an equal amount of vehicle containing a aminoacyl-tRNA inhibitor is applied. After thirteen applications (one application per day for five days a week), the flank organs are shaved and the amount of recovered hair (hair mass) from each is weighed. Percent-reduction of hair growth is calculated by subtracting the hair mass (mg) value of the test compound treated side from the hair mass value of the vehicle treated side; the delta value obtained is then divided by the hair mass value of the vehicle treated side, and the resultant number is multiplied by 100.
# The above-described assay will be referred to herein as the "Golden Syrian hamster" assay. Preferred compositions provide a reduction in hair growth of at least about 25%, more preferably at least about 50%, and most preferably at least about 60% when tested in the Golden Syrian hamster assay.
# [2] = test system: Leucine tRNA synthetase (hair follicle extract); test: Hair follicle aminoacyl-tRNA synthetase inhibition, 14C leucine incorporation; type: biochemical; settings: 0.96 μmole/ml inhibitor (leucinamide: similar concentration); 37° C., 60 minutes
# Experimental: Inhibition of hair follicle aminoacyl-tRNA synthetase was determined using a modification of the procedure described by Hampel et. al (Aminoacyl-tRNASynthetases from Cultured CHO Cells (1979) Methods in Enzymology, Vol. LIX, pp 229-234). A reaction mixture containing the following was used for each assay: 50 mM Tris (pH 7.4), 15 mM MgCl2, 0.5 mM EDTA (adjusted to pH 7), 5 mM ATP (adjusted to pH 7, 0.35 mM CTP, 20 μM ^14 C amino acid and tRNA (50 μg/ml). Leucine and serine tRNA synthetase were assayed with a pH 8.6 buffer and a MgCl2 concentration of 8 mM. The reaction mixture is mixed with the hair follicle extract so that the final assay volume is 100 μl. Typically, 90-95 μl of the reaction mixture was mixed with 5-10 μl of the hair follicles extract. The reaction was carried out at 37° C. for 60 minutes. The reaction was terminated by removing the reaction mixture and placing it on a piece of filter paper that had been soaked with 10% trichloroacetic acid. The filter paper was washed 3 times in 10% trichloroacetic acid and 3 times in 5% trichloroacetic acid. The filter paper was dried and the insoluble radioactivity, corresponding to the ^14 C-aminoacyl-tRNA, was counted in a scintillation counter.
# The incorporation of the ^14 C amino acid varied from 178 dpm/mM to 3,093 dpm/mM in the assays of the amino acids mentioned above. […]
# [3] = Table 1, dose 15%, vehicle B, pH 6.5
# [4] = Table 2 dose response, dose 1%, pH 5.5, vehicle 90% H2O, 6% dipropylene glycol, 4% ethanol
# [5] = Table 2 dose response, dose 5%, pH 6.5, vehicle 90% H2O, 6% dipropylene glycol, 4% ethanol
# [6] = Table 2 dose response, dose 7.5%, pH 6.5, vehicle 90% H2O, 6% dipropylene glycol, 4% ethanol
smiles,measurement,setting,value
CSCCC(C)(N)C(=O)O (racemic) [α-methyl-DL-methionine],% Inhibition of hair growth,[1]; [3],31 ± 7%
same,Treated (mg) hair mass,[1]; [3],1.10 ± .15 mg
CC(C)C[C@H](N)CO [L-leucinol],inhibition of leucine incorporation,[2],18%
N[C@@H](CSC(c1ccccc1)(c1ccccc1)c1ccccc1)C(=O)O [S-trityl-L-cysteine],% Inhibition of hair growth,[1]; [4],35 ± 9%
same,Treated (mg) hair mass,[1]; [4],0.88 ± .10 mg
same,% Inhibition of hair growth,[1]; [5],56 ± 6%
same,Treated (mg) hair mass,[1]; [5],0.90 ± .17 mg
same,% Inhibition of hair growth,[1]; [6],80 ± 6%
same,Treated (mg) hair mass,[1]; [6],0.35 ± .10 mg
same,Dose response of hair growth reduction,[1]; increasing the concentration of the inhibitor in the composition,increased hair growth reduction
CC(C)CC(N)C(N)=O (centres unmarked) [lucinamide],inhibition of leucine incorporation,[2],83%
